Like-named read-outs stand apart in the source and are kept apart here.
Key:
METTL3/METTL14 = METTL3/METTL14 (Homo sapiens, UniProt Q86U44); assay: METTL3-14 Standard Enzyme Assay (METTL3 biochemical assay)
Protocol: Assays were performed in a 25 μl-volume in 384-well V-bottom polypropylene microplates (Greiner Bio-One, cat. No. 781280) at ambient temperature. Optimized 1× assay buffer was 20 mM HEPES pH 7.5, 50 mM KCl, 250 μM MgCl2, 1 mM DTT, 0.01% Tween, 0.01% BSG, 0.004 U/μl RNAseOUT (cat. No. 10777019, ThermoFisher Scientific, Waltham, Mass.). For compound screening METTL3/METTL14 (final concentration, f.c.=2.5 nM) was added using a Multidrop Combi (ThermoFisher Scientific, Waltham, Mass.) and preincubated for 5 min. Reactions were started by adding 3′ biotinylated RNA ([…]-biotin) (f.c.=100 nM) and 3H-SAM (f.c.=100 nM) substrates. Reactions proceeded for 30 minutes and were quenched with excess non-radioactive SAM (f.c.=15 μM). The reactions were then transferred to streptavidin-coated flashplates and incubated for 2 hours at 25° C. Following two washing cycles with 0.1% Tween-20, the plates were sealed and read on a TopCount (PerkinElmer, Waltham, Mass.) plate-based scintillation counter. For determination of kinetic parameters, reaction times were optimized so that measurements were taken during the initial velocity phase of the reaction.

PRMT5-MEP50 = PRMT5-MEP50 (Homo sapiens, UniProt O14744); assay: PRMT5 Assay (PRMT5 biochemical assay)
PRMT5-MEP50, sequence (O14744 whole entry): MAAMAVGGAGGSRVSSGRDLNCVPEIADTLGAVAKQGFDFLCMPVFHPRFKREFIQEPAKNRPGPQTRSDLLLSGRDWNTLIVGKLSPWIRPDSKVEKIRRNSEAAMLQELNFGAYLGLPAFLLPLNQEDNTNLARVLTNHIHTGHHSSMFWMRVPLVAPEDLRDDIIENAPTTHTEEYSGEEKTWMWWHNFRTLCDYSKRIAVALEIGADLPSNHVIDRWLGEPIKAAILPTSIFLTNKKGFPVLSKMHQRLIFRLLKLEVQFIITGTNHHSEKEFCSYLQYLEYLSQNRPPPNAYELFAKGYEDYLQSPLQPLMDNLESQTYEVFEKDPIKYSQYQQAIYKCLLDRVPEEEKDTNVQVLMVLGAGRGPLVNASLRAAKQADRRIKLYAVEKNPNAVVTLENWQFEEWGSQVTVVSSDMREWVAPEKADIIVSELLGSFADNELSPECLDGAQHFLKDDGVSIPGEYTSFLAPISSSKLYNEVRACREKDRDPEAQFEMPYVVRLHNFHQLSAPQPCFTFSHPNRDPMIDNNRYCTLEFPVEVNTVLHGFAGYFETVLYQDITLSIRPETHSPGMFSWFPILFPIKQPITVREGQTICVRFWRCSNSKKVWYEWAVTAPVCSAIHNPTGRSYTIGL
PRMT5-MEP50, sequence (Q9BQA1 whole entry partner): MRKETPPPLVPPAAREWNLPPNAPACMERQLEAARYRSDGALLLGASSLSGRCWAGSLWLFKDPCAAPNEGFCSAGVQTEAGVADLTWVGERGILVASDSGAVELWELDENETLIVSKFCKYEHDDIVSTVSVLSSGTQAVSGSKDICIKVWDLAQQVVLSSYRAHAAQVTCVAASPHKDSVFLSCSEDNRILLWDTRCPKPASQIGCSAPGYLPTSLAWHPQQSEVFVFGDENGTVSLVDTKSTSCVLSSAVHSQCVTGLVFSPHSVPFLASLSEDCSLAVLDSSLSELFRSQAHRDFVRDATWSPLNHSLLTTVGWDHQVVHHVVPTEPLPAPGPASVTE
Protocol: Assays were performed in a 25 μl-volume in 384-well V-bottom polypropylene microplates (Greiner Bio-One, cat. No. 781280) at ambient temperature. Optimized 1× assay buffer was 20 mM Tris-HCl pH 8.0, 1 mM DTT, […]. For compound screening PRMT5-MEP50 (final concentration, f.c.=2.5 nM) was added using a Multidrop Combi (ThermoFisher Scientific, Waltham, Mass.) and preincubated for 5 min. Reactions were started by adding 3′ biotinylated histone H4 peptide acetylated on serine 1 (Ac-[…]-Biotin) (f.c.=100 nM) and 3H-SAM (f.c.=250 nM) substrates. Reactions proceeded for 60 minutes and were quenched with excess non-radioactive SAM (f.c.=15 μM). The reactions were then transferred to streptavidin-coated flashplates and incubated for 2 hours at 25° C. Following two washing cycles with 0.1% Tween-20, the plates were sealed and read on a TopCount (PerkinElmer, Waltham, Mass.) plate-based scintillation counter. For determination of kinetic parameters, reaction times were optimized so that measurements were taken during the initial velocity phase of the reaction.

MOLM-13 cells = assay: MOLM-13 96 Hour Cell Proliferation Assay; format: cell-based; settings: Homo sapiens
Protocol: MOLM-13 (DSMZ) cells were seeded at 600 cells per well in a volume of 44 μL in a Greiner Bio-One CELLSTAR™ 384 Well Polystyrene Cell Culture clear bottom microplate in RPMI 1640 media containing 10% fetal bovine serum using a Multidrop Combi (ThermoFisher Scientific). Cells were incubated overnight at 37° C. in a humidified tissue culture incubator. To prevent evaporation or to reduce edge effect, add 50 μL or more H2O to an empty plate, cover, and place on top of the cell plates. The Mosquito® HTS Liquid Handler was used to make a compound/media intermediate plate by aliquoting 1 μL of compound from the initial compound dilution plate (concentrations ranging from 10.0 mM to 38.0 nM in 100% DMSO) into Bio-One 384-well polypropylene conical bottom microplate containing 49 μL of media containing the appropriate serum (50-fold dilution, 2% DMSO, compound concentrations ranging from 200.0 μM and […]). The Apricot liquid handling system was used to transfer 6.2 μL compounds from the intermediate plate into the seeding plate containing 44 μL cells (8-fold dilution spanning concentrations 25.0 μM to […], 0.25% DMSO final), and placed in a humidified tissue culture incubator at 37° C. After 96 hours, 25 μL of Cell Titer-Glo reagent (Promega) was added to each well using an Integra liquid handling system. The plate was protected from light using TopSeal-A (Black) film over the entire plate, added White Bottom seal film on the bottom of the entire plate for a better reading on the Envision, and placed on an IKA plate shaker for at 300 rpm for 10 minutes at room temperature. The plate was read on an EnVision plate reader (Perkin Elmer) using the Ultra Sensitive Luminescence protocol. Data analysis was performed by normalizing the raw luminescence units to an average of the positive control values for staurosporine (100% cell death) and the negative control values for DMSO (0% cell death). An IC50 was calculated using a 4-parameter logistic nonlinear regression model in GraphPad Prism.

METTL1/WDR4 = METTL1/WDR4 (Homo sapiens, UniProt Q9UBP6); assay: METTL1 Assay (METTL1 biochemical assay); settings: read-out: METTL1 IC50; METTL1 biochemical assay
METTL1/WDR4, sequence (Q9UBP6 whole entry, species assumed): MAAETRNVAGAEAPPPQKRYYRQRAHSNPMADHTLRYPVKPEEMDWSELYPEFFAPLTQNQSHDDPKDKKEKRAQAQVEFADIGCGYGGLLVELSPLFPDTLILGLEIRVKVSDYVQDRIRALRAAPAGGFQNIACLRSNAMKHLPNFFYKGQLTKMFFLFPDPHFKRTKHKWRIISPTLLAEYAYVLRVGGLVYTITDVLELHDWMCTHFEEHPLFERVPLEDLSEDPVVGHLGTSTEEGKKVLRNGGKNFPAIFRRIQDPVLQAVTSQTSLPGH
METTL1/WDR4, sequence (P57081 whole entry partner, species assumed): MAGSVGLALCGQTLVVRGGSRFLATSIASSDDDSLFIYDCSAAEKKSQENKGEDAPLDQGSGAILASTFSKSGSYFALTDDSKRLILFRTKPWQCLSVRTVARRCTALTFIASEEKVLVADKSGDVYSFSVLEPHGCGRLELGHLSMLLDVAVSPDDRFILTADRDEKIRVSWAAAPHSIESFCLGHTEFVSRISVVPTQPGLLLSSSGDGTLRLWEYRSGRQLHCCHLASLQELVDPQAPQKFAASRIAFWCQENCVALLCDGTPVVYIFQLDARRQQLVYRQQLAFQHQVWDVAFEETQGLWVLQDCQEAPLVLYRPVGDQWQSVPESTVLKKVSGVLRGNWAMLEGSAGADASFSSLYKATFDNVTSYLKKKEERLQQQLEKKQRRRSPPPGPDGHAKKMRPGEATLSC
Protocol: Assays were performed in a 25 μl-volume in 384-well V-bottom polypropylene microplates (Greiner Bio-One, cat. No. 781280) at ambient temperature. Optimized 1× assay buffer was 20 mM HEPES pH 7.5, 50 mM KCl, 250 μM MgCl2, 1 mM DTT, 0.01% Tween, 0.01% BSG, 0.004 U/μl RNAseOUT (cat. No. 10777019, ThermoFisher Scientific, Waltham, Mass.). For compound screening METTL1/WDR4 (final concentration, f.c.=6.25 nM) was added using a Multidrop Combi (ThermoFisher Scientific, Waltham, Mass.) and preincubated for 5 min. Reactions were started by adding 3′ biotinylated RNA ([…]-biotin) (f.c.=25 nM) and 3H-SAM (f.c.=60 nM) substrates. Reactions proceeded for 20 minutes and were quenched with excess non-radioactive SAM (f.c.=15 μM). The reactions were then transferred to streptavidin-coated flashplates and incubated for 2 hours at 25° C. Following two washing cycles with 0.1% Tween-20, the plates were sealed and read on a TopCount (PerkinElmer, Waltham, Mass.) plate-based scintillation counter. For determination of kinetic parameters, reaction times were optimized so that measurements were taken during the initial velocity phase of the reaction.

[1] = METTL3 biochemical assay; read-out: METTL3 IC50
[2] = PRMT5 biochemical assay; read-out: PRMT5 IC50

METTL3/METTL14, sequence (Q86U44 whole entry, species assumed): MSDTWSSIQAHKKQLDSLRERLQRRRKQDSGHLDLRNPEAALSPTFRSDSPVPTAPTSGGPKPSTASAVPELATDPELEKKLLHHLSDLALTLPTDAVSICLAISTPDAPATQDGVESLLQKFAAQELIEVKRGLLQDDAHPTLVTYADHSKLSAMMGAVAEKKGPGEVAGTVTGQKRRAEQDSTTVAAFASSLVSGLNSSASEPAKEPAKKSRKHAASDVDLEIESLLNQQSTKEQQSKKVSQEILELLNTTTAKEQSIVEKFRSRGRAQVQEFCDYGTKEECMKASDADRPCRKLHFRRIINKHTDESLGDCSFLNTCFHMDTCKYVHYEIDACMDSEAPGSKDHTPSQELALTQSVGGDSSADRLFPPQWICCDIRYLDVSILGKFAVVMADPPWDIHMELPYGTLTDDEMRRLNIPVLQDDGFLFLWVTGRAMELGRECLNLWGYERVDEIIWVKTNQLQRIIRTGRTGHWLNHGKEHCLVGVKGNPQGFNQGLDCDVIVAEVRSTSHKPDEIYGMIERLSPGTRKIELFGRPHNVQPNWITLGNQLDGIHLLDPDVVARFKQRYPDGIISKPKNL
METTL3/METTL14, sequence (Q9HCE5 whole entry partner, species assumed): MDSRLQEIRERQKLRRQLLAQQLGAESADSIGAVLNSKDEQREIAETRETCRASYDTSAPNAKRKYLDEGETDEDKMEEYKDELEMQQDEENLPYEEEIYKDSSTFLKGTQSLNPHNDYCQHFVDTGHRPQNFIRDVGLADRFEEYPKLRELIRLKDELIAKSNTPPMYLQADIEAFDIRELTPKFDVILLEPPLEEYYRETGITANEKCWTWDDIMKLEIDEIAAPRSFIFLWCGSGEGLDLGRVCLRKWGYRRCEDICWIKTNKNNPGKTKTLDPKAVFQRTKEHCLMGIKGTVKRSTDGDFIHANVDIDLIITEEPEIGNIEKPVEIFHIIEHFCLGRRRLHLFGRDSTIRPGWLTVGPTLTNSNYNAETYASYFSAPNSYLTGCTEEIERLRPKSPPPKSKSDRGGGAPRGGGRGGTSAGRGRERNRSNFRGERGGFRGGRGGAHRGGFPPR

Compound	IC50 (METTL3/METTL14; read-out: METTL3 IC50; METTL3 biochemical assay) [nM]	IC50 (PRMT5-MEP50; read-out: PRMT5 IC50; PRMT5 biochemical assay) [nM]	IC50 (MOLM-13 cells) [nM]	IC50 (METTL3/METTL14; [1]) [nM]	IC50 (METTL1/WDR4) [nM]	IC50 (PRMT5-MEP50; [2]) [nM]
CCn1ccc(-c2cn([C@@H]3O[C@H](COc4ccc5ccc(NC)nc5c4)[C@@H](O)[C@@H]3F)c3ncnc(N)c23)n1 [I-3]	< 10	10 to 100	< 1000			
CNc1ccc2cc(F)c(CC[C@H]3C[C@@H](n4ccc5c(N)ncnc54)[C@H](O)[C@@H]3O)cc2n1 [I-87]				10 to 100	> 1000	< 10
Nc1ncnc2c1ccn2[C@@H]1C[C@H](CCc2cccc(NC(=O)C3CC3)c2)[C@@H](O)[C@H]1O [I-96]				> 1000	> 1000	100 to 1000
Nc1ncnc2c1ccn2[C@@H]1O[C@H](COc2ccc3ccc(N4CCOCC4)nc3c2)[C@@H](O)[C@H]1O [I-77]				10 to 100	> 1000	100 to 1000
CNc1ccc2ccc(OC[C@H]3O[C@@H](n4cc(C)c5c(N)ncnc54)[C@H](O)[C@@H]3O)cc2n1 [I-22]				> 1000	> 1000	100 to 1000
NC(=O)Nc1cccc(CC[C@H]2C[C@@H](n3ccc4c(N)ncnc43)[C@H](O)[C@@H]2O)c1 [I-95]				> 1000	> 1000	100 to 1000
Nc1ncnc2c1ccn2[C@@H]1C[C@H](CCc2ccc3[nH]cnc3c2)[C@@H](O)[C@H]1O [I-88]				> 1000	> 1000	< 10
CCCc1cn([C@@H]2C[C@H](CCc3ccc4ccc(N)nc4c3)[C@@H](O)[C@H]2O)c2ncnc(N)c12 [I-62]				100 to 1000	> 1000	< 10
Nc1ncnc2c1ccn2[C@@H]1C[C@H](CCc2ccc3cncnc3c2)[C@@H](O)[C@H]1O [I-127]				> 1000	> 1000	< 10
Cc1cc2c(N)ncnc2n1[C@@H]1C[C@H](COc2ccc3ccc(N)nc3c2)[C@@H](O)[C@H]1O [I-56]				> 1000	> 1000	< 10
Nc1ccc2ccc(CO[C@H]3C[C@@H](n4ccc5c(N)ncnc54)[C@H](O)[C@@H]3O)cc2n1 [I-139]				< 10	> 1000	< 10
Nc1ccc2ccc(CC[C@H]3C[C@@H](n4ccc5c(N)ncnc54)[C@H](O)[C@@H]3O)cc2n1 [I-138]				100 to 1000	> 1000	< 10
Nc1ncnc2c1ccn2[C@@H]1C[C@H](CCc2ccc3[nH]ncc3c2)[C@@H](O)[C@H]1O [I-106]				> 1000	> 1000	100 to 1000
Cc1nc(N)c2ccn([C@@H]3C[C@H](CCc4ccc5ccc(N)nc5c4)[C@@H](O)[C@H]3O)c2n1 [I-119]				> 1000	> 1000	< 10
CNc1ncnc2c1ccn2[C@@H]1C[C@H](CCc2ccc3ccc(N)nc3c2)[C@@H](O)[C@H]1O [I-129]				> 1000	> 1000	< 10

From US20230027361A1, “METTL3 MODULATORS” (priority 2019, published 2023)
